Legend:
[1] = biological target: T1, purified STAT1 protein (Homo sapiens, UniProt P42224); experiment: Protein thermal shift (PTS) assay of STAT1; format: binding; conditions: 10 and 20 μM
T1 sequence (P42224 1-750): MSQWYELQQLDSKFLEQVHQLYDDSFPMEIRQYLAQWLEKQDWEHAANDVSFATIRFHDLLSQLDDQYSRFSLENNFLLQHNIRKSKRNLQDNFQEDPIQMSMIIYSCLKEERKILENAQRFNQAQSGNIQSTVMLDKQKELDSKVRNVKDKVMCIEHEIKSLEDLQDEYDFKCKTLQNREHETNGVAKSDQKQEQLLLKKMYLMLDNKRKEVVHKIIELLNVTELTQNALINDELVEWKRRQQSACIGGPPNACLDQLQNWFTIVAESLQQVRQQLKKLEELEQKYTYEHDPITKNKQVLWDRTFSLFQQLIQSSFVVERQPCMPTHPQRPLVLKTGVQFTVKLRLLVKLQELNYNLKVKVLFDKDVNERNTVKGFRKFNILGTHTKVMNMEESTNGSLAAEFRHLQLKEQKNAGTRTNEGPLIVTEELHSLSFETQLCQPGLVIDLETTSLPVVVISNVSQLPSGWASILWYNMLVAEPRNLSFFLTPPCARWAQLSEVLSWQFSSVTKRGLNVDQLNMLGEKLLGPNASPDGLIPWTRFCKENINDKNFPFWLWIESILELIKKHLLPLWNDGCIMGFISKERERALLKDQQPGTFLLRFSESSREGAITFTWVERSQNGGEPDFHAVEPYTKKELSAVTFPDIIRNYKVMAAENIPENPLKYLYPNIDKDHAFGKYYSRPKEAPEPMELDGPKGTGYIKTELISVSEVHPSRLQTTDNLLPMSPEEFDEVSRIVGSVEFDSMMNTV
Procedure: (§1) FIG. 5 illustrates an embodiment of the present invention and illustrates evaluations of SIM-1 and SIM-2 as STAT3 inhibitors. (A) Protein thermal shift assay was performed to assess the melting of purified recombinant STAT3 (blue; 0.5 μg protein) (Tm=melting temperature=68.88° C.). The representative melting curves were derived after adding SIM-1 (red; 4 nM), SIM-2 (purple; 8 nM), and positive control stattic (grey; 20 nM) to the STAT3 protein. The differences of melting temperature (ΔTm) between pure protein and protein+ligands are −4.54° C., −4.16° C., and 0.39° C. for SIM-1, SIM-2, and stattic (ΔTm^cut-off>2° C.). (B) Phospho protein array analysis was conducted in cell lysates of MDA-MB-468 cells treated with DMSO control (top left), 25 ng/mL EGF (top right), EGF+10 nM SIM-1 (bottom left), and EGF+SIM-2 (bottom right) for 24 hrs. Each colored arrowhead represents a specific phosphoprotein, and the description was added in the bottom of array images. S=serine and Y=tyrosine. Relative levels of (C) Tyrosine 705 (Y705) phosphorylated STAT3, (D) Serine 727 (S727) phosphorylated STAT3, (E) Tyrosine 693 (Y693) phosphorylated STAT4, (F) Tyrosine 694 ([…]) phosphorylated STAT5A had been derived after normalizing the spot densities (n=5) with respective β-actin spots. Results are mean±SD of five different spot analyses. One-way ANOVA was adopted to test the significance of mean between groups at **p<0.01, and ****p<0.0001. Ns=no significance. Thermal shift assays of increasing doses of (G) SIM-1, (H) SIM-2, and (I) stattic with purified STAT1 protein (0.5 μg protein). The respective ΔTm values were given with the plot after matching with the color code. Similarly, full-length STAT5b protein melting was assessed with (J) SIM-1, (K) SIM-2, and (L) stattic. Results are confirmed after three different experiments.
(§2) To confirm the result, PTS assay of STAT1 with SIM-1 (FIG. 5G), SIM-2 (FIG. 5H), and stattic (FIG. 5I) was performed. […] Similar results were observed while performing the binding assay with STAT5b.

[2] = biological target: T2, full-length STAT5b protein (Homo sapiens, UniProt P51692); experiment: Protein thermal shift binding assay with STAT5b; conditions: increasing doses
T2 construct: full-length STAT5b protein melting was assessed with (J) SIM-1, (K) SIM-2, and (L) stattic
T2 sequence (P51692 1-787): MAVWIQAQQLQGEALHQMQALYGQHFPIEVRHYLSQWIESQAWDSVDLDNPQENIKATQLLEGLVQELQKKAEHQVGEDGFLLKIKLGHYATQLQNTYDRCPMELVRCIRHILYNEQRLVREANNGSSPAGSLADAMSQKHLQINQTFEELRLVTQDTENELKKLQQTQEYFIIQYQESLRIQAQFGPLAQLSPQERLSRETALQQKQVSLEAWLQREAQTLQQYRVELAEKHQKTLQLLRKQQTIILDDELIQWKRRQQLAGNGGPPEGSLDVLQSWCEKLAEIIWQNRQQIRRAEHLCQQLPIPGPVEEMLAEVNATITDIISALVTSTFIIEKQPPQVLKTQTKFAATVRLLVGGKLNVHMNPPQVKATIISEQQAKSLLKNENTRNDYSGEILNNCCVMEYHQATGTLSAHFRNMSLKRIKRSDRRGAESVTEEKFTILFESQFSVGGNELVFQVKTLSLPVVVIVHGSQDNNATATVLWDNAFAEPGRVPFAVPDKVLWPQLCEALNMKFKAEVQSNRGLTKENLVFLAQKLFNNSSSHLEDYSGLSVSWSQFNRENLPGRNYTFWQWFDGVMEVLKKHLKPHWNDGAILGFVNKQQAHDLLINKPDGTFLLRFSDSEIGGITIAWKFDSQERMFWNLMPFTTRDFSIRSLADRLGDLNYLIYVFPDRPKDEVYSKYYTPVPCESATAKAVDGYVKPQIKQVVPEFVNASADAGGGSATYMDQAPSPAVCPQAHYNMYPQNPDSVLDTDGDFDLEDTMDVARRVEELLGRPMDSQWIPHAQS
Procedure: as §1, §2

[3] = biological target: T3, STAT3 (Homo sapiens, UniProt P40763); conditions: read-out: IC50 as STAT3 inhibitor; cited from earlier work
Target sequence in this assay (P40763 whole entry, species assumed): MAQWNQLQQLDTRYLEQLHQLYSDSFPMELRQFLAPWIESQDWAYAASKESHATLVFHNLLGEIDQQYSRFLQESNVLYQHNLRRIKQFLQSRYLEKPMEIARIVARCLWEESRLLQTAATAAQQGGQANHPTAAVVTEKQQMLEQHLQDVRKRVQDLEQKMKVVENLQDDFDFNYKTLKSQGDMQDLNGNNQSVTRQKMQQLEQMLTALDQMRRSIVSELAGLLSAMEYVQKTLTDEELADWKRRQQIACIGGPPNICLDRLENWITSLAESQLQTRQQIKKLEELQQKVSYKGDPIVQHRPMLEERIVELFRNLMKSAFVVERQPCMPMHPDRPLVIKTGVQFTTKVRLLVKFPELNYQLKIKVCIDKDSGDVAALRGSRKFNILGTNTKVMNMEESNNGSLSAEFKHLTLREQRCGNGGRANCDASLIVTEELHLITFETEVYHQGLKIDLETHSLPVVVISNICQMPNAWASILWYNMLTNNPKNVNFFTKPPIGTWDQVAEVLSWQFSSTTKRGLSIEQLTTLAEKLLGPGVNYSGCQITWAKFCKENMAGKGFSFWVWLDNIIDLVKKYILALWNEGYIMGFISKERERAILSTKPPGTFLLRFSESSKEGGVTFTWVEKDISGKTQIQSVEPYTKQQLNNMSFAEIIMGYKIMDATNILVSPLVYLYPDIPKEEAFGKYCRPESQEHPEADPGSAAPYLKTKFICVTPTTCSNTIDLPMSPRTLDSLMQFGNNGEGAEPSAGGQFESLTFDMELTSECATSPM

[4] = biological target: T3, STAT3; experiment: Protein thermal shift assay with recombinant STAT3; format: binding; set-up: purchased Active motif 81095
Procedure: as §1
Target sequence in this assay (P40763 whole entry): as the sequence (P40763 whole entry, species assumed) above
FIG. 6 illustrates an embodiment of the present invention and illustrates dose-dependent curves of maximum fluorescence for SIM1 and SIM2. Protein thermal shift assay of recombinant STAT3 was performed with increasing doses of (A) SIM-1, (B) SIM-2, and (C) positive control “Stattic”. The maximum fluorescence for each dose was derived and then plotted in GraphPad Prism software with respective doses. The resultant non-liner hyperbolic curves provide half-maximal binding (EC50) for all three compounds.
This example provides a representative study of the present disclosure to test if SIM1 and SIM2 served as ligands of STAT3. Therefore, the present invention adopted a protein thermal shift assay in which […] of recombinant human STAT3 protein (active motif) was incubated with increasing doses of SIM1 and SIM2 followed by the execution of melting analysis starting from 25 to 95° C. as described elsewhere.

[5] = tested on: TNBC cells; conditions: cited from earlier work
[6] = tested on: tumor burden; conditions: in vivo; cited from earlier work

Structure (SMILES) | shift in the melting curve of STAT1 [1] | shift in the melting curve of STAT5b [2] | IC50 [3] [µM] | ΔTm of STAT3 ([4]; 20 nM ligand, cut-off 2° C.) [°C] | EC50 ([4]; non-linear hyperbolic binding curve, read-out: EC50 (half-maximal binding, maximum fluorescence versus dose)) [µM] | CT50 [5] | doses causing apoptosis of TNBC tumors [5] [µM] | dose effectively reducing tumor burden [6]
O=[N+]([O-])c1ccc2c(c1)S(=O)(=O)C=C2 [stattic, reference compound] | did not produce any shift | unable to produce any significant shift | 5 | 0.39 | ~2 | micromolar range | 10 to 20 | –
NC(=O)CC[C@H](NC(=O)[C@@H]1CC[C@@H]2CCN(C(=O)CCCCCC#Cc3cccc4c3CN(C3CCC(=O)NC3=O)C4=O)C[C@H](NC(=O)c3cc4cc(C(F)(F)P(=O)(O)O)ccc4[nH]3)C(=O)N21)C(=O)NC(c1ccccc1)c1ccccc1 (stereo partly drawn) [SD36] | – | – | – | – | – | micromolar range | – | 25-50 mg/Kg body weight (bwt)

Source: US20250255847A1, “[…]s: Novel Drugs for Triple Negative Breast Cancer” (SIMMARON RSEARCH INC, priority 2024, published 2025)
